Tests used:
[1] = In vitro metabolic stability in hepatic microsomes with NADPH; settings: for in vitro metabolic stability (in words): hepatic microsomes with NADPH, compared with 1
mice = test: Urearetic activity: urine osmolality in mice under dDAVP stimulation; assay type: in vivo, mouse; settings: 400 μg intraperitoneal, dDAVP 1 h later, versus formulation alone
[2] = Pharmacokinetics and renal accumulation in mice; settings: intraperitoneal bolus 400 μg, for many hours

O=S(=O)(c1ccc(C(F)(F)F)cc1)c1nnn2c1nc(NCc1cccs1)c1sccc12 [3c, Thiophen-2-ylmethyl-[3-(4-trifluoromethylbenzenesulfonyl)thieno[2,3-e][1,2,3]triazolo[1,5-a]pyrimidin-5-yl]amine]
in vitro metabolic stability (in words) [1]: improved metabolic stability

O=S(=O)(c1ccc(OC(F)(F)F)cc1)c1nnn2c1nc(NCc1cccs1)c1sccc12 [3d, Thiophen-2-ylmethyl-[3-(4-trifluoromethoxybenzenesulfonyl)thieno[2,3-e][1,2,3]triazolo-[1,5-a]pyrimidin-5-yl]amine]
in vitro metabolic stability (in words) [1]: improved metabolic stability

O=S(=O)(c1ccc(Br)cc1)c1nnn2c1nc(NCc1cccs1)c1sccc12 [3i, [3-(4-Bromobenzenesulfonyl)thieno[2,3-e][1,2,3]triazolo-[1,5-a]pyrimidin-5-yl]thiophen-2-ylmethylamine]
in vitro metabolic stability (in words) [1]: improved metabolic stability

CC(F)(F)c1ccc(S(=O)(=O)c2nnn3c2nc(NCc2cccs2)c2sccc23)cc1 [3k, [3-[4-(1,1-Difluoroethyl)benzenesulfonyl]thieno[2,3-e]-[1,2,3]triazolo[1,5-a]pyrimidin-5-yl]thiophen-2-ylmethylamine]
reduction of urine osmolality (mice): ~ 0.5 Osm/kg H2O | improvement of in vitro metabolic stability compared to 1 [1]: ~ 40 fold | 3k concentration in blood, kidney and urine [2]: > 1 µM
